In ChEMBL document CHEMBL1201862, “PubChem BioAssay data set” (2004):
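Each compound was tested at five concentrations against cells in 96-well plates for 48 hours. GI50 marks 50% less growth.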 Calls of active or inactive are those of the source. No stated cut-off is given here; in the data, active = GI50 up to about 1.1 µM and inactive = higher.

What was measured:
Experiment in all cases: growth of human tumour cells (NCI), 48 h
COLO 205 = tested on: COLO 205
KM12 = tested on: KM12
SW-620 = tested on: SW-620
MCF7 = tested on: MCF7
A549 = tested on: A549
SNB-19 = tested on: SNB-19
Hs-578T = tested on: Hs-578T
OVCAR-4 = tested on: OVCAR-4
LOX IMVI = tested on: LOX IMVI
U-251 = tested on: U-251
MDA-MB-435 = tested on: MDA-MB-435
NCI-H226 = tested on: NCI-H226
HOP-92 = tested on: HOP-92
SF-268 = tested on: SF-268
OVCAR-3 = tested on: OVCAR-3
Malme-3M = tested on: Malme-3M
OVCAR-8 = tested on: OVCAR-8
SR = tested on: SR
CCRF-CEM = tested on: CCRF-CEM
HL-60 = tested on: HL-60

Measured: GI50

c1cc(CNCCN2CCNCC2)ccn1
inactive: COLO 205 > 100 µM | KM12 > 100 µM | SW-620 > 100 µM | MCF7 > 100 µM | A549 > 100 µM | SNB-19 > 100 µM | Hs-578T > 100 µM | OVCAR-4 > 100 µM | LOX IMVI > 100 µM | U-251 > 100 µM | MDA-MB-435 > 100 µM | NCI-H226 > 100 µM | HOP-92 > 100 µM | SF-268 > 100 µM | OVCAR-3 > 100 µM | Malme-3M > 100 µM | OVCAR-8 > 100 µM | SR > 100 µM

CN1c2ccc(Cl)cc2C(=O)NC1c1ccc([N+](=O)[O-])s1 (stereo not given)
inactive: COLO 205 21.5 µM | KM12 16.4 µM | SW-620 32.7 µM | MCF7 19.6 µM | A549 23.5 µM | CCRF-CEM 39.5 µM | SNB-19 30.1 µM | Hs-578T 17.3 µM | OVCAR-4 20.4 µM | HL-60 19.6 µM | LOX IMVI 14.5 µM | U-251 16.4 µM | MDA-MB-435 16.3 µM | HOP-92 14.5 µM | SF-268 3.75 µM | OVCAR-3 15.5 µM | OVCAR-8 15.8 µM | SR 14.6 µM

O=[N+]([O-])c1ccc(CN(CCCl)OCCCl)cc1
inactive: COLO 205 > 100 µM | KM12 > 100 µM | SW-620 91.2 µM | MCF7 83.4 µM | A549 67.6 µM | CCRF-CEM 35.5 µM | SNB-19 > 100 µM | Hs-578T > 100 µM | OVCAR-4 56.9 µM | HL-60 40 µM | LOX IMVI 55.7 µM | U-251 > 100 µM | MDA-MB-435 > 100 µM | NCI-H226 > 100 µM | SF-268 > 100 µM | OVCAR-3 > 100 µM | Malme-3M > 100 µM | OVCAR-8 > 100 µM | SR 65 µM

Cc1ccc(C)n2c1nc1ccc3ccccc3c12
inactive: COLO 205 > 100 µM | KM12 > 100 µM | SW-620 > 100 µM | MCF7 26.8 µM | A549 > 100 µM | CCRF-CEM > 100 µM | SNB-19 > 100 µM | Hs-578T 49.9 µM | HL-60 > 100 µM | U-251 > 100 µM | MDA-MB-435 > 100 µM | NCI-H226 > 100 µM | HOP-92 40.6 µM | SF-268 > 100 µM | OVCAR-3 > 100 µM | Malme-3M > 100 µM | OVCAR-8 > 100 µM | SR > 100 µM

CC(C)=CC(=O)c1[nH]c2ccccc2c1CC(=O)NCCc1cncn1C
inactive: COLO 205 21.9 µM | KM12 55.7 µM | SW-620 85.7 µM | MCF7 42.4 µM | A549 68.4 µM | CCRF-CEM 55.2 µM | SNB-19 93.8 µM | Hs-578T 99.1 µM | OVCAR-4 > 100 µM | LOX IMVI 55.5 µM | U-251 74.5 µM | MDA-MB-435 47 µM | NCI-H226 88.3 µM | HOP-92 36.4 µM | SF-268 61.8 µM | OVCAR-3 58.1 µM | Malme-3M > 100 µM | OVCAR-8 62.4 µM | SR 17.2 µM

CCOC(=O)c1ccc(/N=C2/C(=S)N(c3ccc(C(=O)OCC)cc3)C(=N)N2/N=C/c2ccccc2)cc1
inactive: COLO 205 5.06 µM | KM12 14.7 µM | SW-620 1.51 µM | MCF7 6.68 µM | A549 30 µM | SNB-19 14.3 µM | Hs-578T 47 µM | U-251 > 10 µM | MDA-MB-435 > 10 µM | NCI-H226 15 µM | HOP-92 15.9 µM | SF-268 16.2 µM | OVCAR-3 13.1 µM | Malme-3M 17.6 µM | OVCAR-8 28.2 µM | SR 3.52 µM

COC(OC)C1OC(CO)C(n2ccc(N)nc2=O)C1O (stereo not given)
inactive: COLO 205 > 100 µM | KM12 > 100 µM | SW-620 > 100 µM | MCF7 > 100 µM | A549 > 100 µM | CCRF-CEM > 100 µM | SNB-19 > 100 µM | Hs-578T > 100 µM | OVCAR-4 > 100 µM | LOX IMVI > 100 µM | U-251 > 100 µM | MDA-MB-435 > 100 µM | NCI-H226 > 100 µM | HOP-92 > 100 µM | SF-268 > 100 µM | OVCAR-3 > 100 µM | Malme-3M > 100 µM | OVCAR-8 > 100 µM | SR > 100 µM

CS/C(=N\Nc1cnc2ccccc2n1)NS(=O)(=O)c1cc(C)c(Cl)cc1Cl
inactive: COLO 205 > 100 µM | KM12 > 100 µM | SW-620 > 100 µM | MCF7 65.6 µM | A549 > 100 µM | CCRF-CEM > 100 µM | SNB-19 > 100 µM | Hs-578T > 100 µM | OVCAR-4 > 100 µM | HL-60 88.7 µM | LOX IMVI 61.1 µM | U-251 > 100 µM | MDA-MB-435 > 100 µM | NCI-H226 > 100 µM | HOP-92 15.5 µM | SF-268 > 100 µM | OVCAR-3 59.6 µM | Malme-3M > 100 µM | OVCAR-8 > 100 µM

COc1ccccc1NC(=O)C(=O)Cc1cnc2ccccc2n1
inactive: COLO 205 > 100 µM | KM12 > 100 µM | SW-620 > 100 µM | MCF7 > 100 µM | A549 > 100 µM | CCRF-CEM > 100 µM | SNB-19 > 100 µM | Hs-578T > 100 µM | OVCAR-4 > 100 µM | HL-60 > 100 µM | LOX IMVI > 100 µM | U-251 > 100 µM | MDA-MB-435 > 100 µM | NCI-H226 > 100 µM | HOP-92 > 100 µM | SF-268 > 100 µM | OVCAR-3 > 100 µM | OVCAR-8 > 100 µM | SR > 100 µM

O=C(O)C(=Cc1ccc(-c2ccc([N+](=O)[O-])cc2)o1)C(=O)O
inactive: COLO 205 > 100 µM | KM12 > 100 µM | SW-620 > 100 µM | MCF7 > 100 µM | A549 > 100 µM | CCRF-CEM > 100 µM | SNB-19 > 100 µM | Hs-578T > 100 µM | HL-60 > 10 µM | LOX IMVI > 100 µM | U-251 > 100 µM | MDA-MB-435 > 100 µM | NCI-H226 > 100 µM | SF-268 > 100 µM | OVCAR-3 > 100 µM | Malme-3M > 100 µM | OVCAR-8 > 100 µM | SR > 100 µM

COc1cc(C(=O)N(C)N(C)C)cc(OC)c1OC
inactive: COLO 205 > 10 µM | KM12 > 10 µM | SW-620 > 10 µM | MCF7 > 10 µM | A549 > 10 µM | CCRF-CEM > 10 µM | SNB-19 > 10 µM | Hs-578T > 10 µM | OVCAR-4 > 10 µM | HL-60 > 10 µM | LOX IMVI > 10 µM | U-251 > 10 µM | MDA-MB-435 > 10 µM | NCI-H226 > 10 µM | HOP-92 > 10 µM | SF-268 > 10 µM | OVCAR-3 > 10 µM | Malme-3M > 10 µM | OVCAR-8 > 10 µM

CC1(C)OCC(/C=C\C(O)CC2(C)OCCO2)CO1 (stereo not given)
inactive: COLO 205 > 100 µM | KM12 > 100 µM | SW-620 > 100 µM | MCF7 > 100 µM | A549 > 100 µM | SNB-19 > 100 µM | Hs-578T > 100 µM | OVCAR-4 > 100 µM | HL-60 > 100 µM | LOX IMVI > 100 µM | U-251 > 100 µM | MDA-MB-435 > 100 µM | NCI-H226 > 100 µM | HOP-92 > 100 µM | SF-268 > 100 µM | OVCAR-3 > 100 µM | OVCAR-8 > 100 µM | SR > 100 µM

ClC1(Cl)C(c2ccccc2)C1c1ccccc1 (stereo not given)
inactive: COLO 205 36 µM | KM12 21.4 µM | SW-620 22.2 µM | MCF7 56 µM | A549 23 µM | SNB-19 25.9 µM | Hs-578T 20.7 µM | OVCAR-4 44.6 µM | LOX IMVI 28.2 µM | U-251 41.3 µM | MDA-MB-435 7.35 µM | NCI-H226 14.6 µM | SF-268 32.4 µM | OVCAR-3 21.1 µM | OVCAR-8 21.2 µM | SR 7.64 µM

C[C@H](CC[C@@H](O)C(C)(C)O)[C@H]1CC[C@@]2(C)[C@@H]3CC=C4[C@@H](CC[C@H](O)C4(C)C)[C@]3(C)C(=O)C[C@]12C [BRYODULCOSIGENIN]
inactive: COLO 205 11.1 µM | KM12 15.1 µM | SW-620 22.8 µM | MCF7 3.05 µM | A549 27.7 µM | CCRF-CEM 16.5 µM | SNB-19 > 50 µM | Hs-578T 45.7 µM | OVCAR-4 > 50 µM | HL-60 24.5 µM | LOX IMVI 45.9 µM | U-251 38.5 µM | MDA-MB-435 37.6 µM | NCI-H226 20.8 µM | OVCAR-3 > 50 µM | Malme-3M > 50 µM | OVCAR-8 27.4 µM | SR 23.1 µM

Cn1cc(NC(=O)c2cc(NC(=O)c3cc(NC=O)cn3C)cn2C)cc1C(=O)NCCC(=N)N [STALLIMYCIN]
inactive: COLO 205 > 100 µM | KM12 > 100 µM | SW-620 > 100 µM | MCF7 > 100 µM | CCRF-CEM > 100 µM | SNB-19 > 100 µM | Hs-578T 53.1 µM | HL-60 > 100 µM | LOX IMVI > 100 µM | U-251 > 100 µM | MDA-MB-435 > 100 µM | NCI-H226 7.87 µM | SF-268 > 100 µM | OVCAR-3 > 100 µM | Malme-3M 25.5 µM | OVCAR-8 > 100 µM
